Measured values taken from US8148100B2, “Mina53 assays” (ISIS Innovation Limited, priority 2005, dated 2012).

Key:
Mina53(A26-V465) [1] = target: T1, Mina53(A26-V465) (Homo sapiens, UniProt Q8IUF8, A386T); assay: [14C] labelled 2-OG decarboxylation assay (uncoupled 2-OG turnover, 14CO2 release); assay type: biochemical; conditions: for inhibition of uncoupled 2-OG turnover by small molecules (in words): final concentration of 1 mM; for 2OG turnover: truncated Mina53 A26-V465 with Fe(II) and ascorbate, 16 nm 2-OG initially present, 37° C., 20 minutes
T1 construct: A N-terminal truncation of Mina53 A26-V465 cloned into pNIC28-Bsa4 was supplied by the Structural Genomics Consortium Oxford; His-tag (polyhistidine, TEV-cleavable, from pNIC28-Bsa4) (N, cleaved yes); made in house; host or cells: E. coli BL21(DE3)
T1 sequence (Q8IUF8 26-465 A386T): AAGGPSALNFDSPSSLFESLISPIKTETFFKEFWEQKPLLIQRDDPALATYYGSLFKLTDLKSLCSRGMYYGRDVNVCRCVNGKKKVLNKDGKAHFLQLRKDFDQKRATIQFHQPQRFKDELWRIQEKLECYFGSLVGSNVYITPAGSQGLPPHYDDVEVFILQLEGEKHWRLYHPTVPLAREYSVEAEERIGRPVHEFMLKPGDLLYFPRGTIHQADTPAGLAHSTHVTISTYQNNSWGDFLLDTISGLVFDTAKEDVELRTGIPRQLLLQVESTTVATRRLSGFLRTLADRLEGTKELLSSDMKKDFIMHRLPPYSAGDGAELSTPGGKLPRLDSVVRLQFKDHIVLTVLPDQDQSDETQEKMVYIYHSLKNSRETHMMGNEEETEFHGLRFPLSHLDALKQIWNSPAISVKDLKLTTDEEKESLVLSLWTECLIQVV
Procedure: Once purified full-length His-Mina53 had been obtained it was tested for 2-OG oxygenase activity. A standard assay for this family of enzymes involves the use of [^14C] labelled 2-OG co-substrate. Upon reaction, the ^14C label is released as 14CO2 gas (old FIG. 2).
The ^14CO2 gas is then trapped using a strong base and quantified by liquid scintillation. The level of uncoupled turnover of 2-OG oxygenases can be increased by the use of a reducing agent, e.g. ascorbate. Many other assays for 2-OG oxygenases are well known, e.g. those based on oxygen consumption, succinate production or oxidation of the “prime substrate” (McNeill et al (2005) Anal. Biochem. 336, 125-31; Sabourin & Bieber (1982) J. Biol. Chem. 257, 7460-7; and Cunliffe et al. (1986) Biochem. J. 240, 617-9).
As noted above, many of the enzymes in the family catalyse the decarboxylation of 2-OG in the absence of a suitable prime substrate, albeit at a reduced rate. This activity is sometimes termed as uncoupled turnover. The protocol used for the 2-OG assay decarboxylation is based on the method used to measure [^14CO2] release by α-ketoisocaproate oxygenase (Sabourin & Bieber (1982) J. Biol. Chem. 257, 7460-7). Standard assay conditions consisted of a total volume of 100 μl, 50 mM Tris-HCl pH 7.5, 4 mM ascorbate, 160 μM 2OG (5% 1-[^14C]), 80 μM FeSO4.6H2O, 0.48 mg·ml^−1 catalase, 10 μM Mina53. Four stocks were made: (a) Mina53 (b) Fe(II) (c) ascorbate and, (d) all other reagents. Assays were started by mixing components (a) to (d). A tube containing 200 μl hyamine hydroxide was added and the vial sealed. The assays were incubated at 37° C. for 20 minutes then quenched with methanol (200 μl). Reaction tubes were then left on ice for 30 mins to collect [^14CO2] gas, before the hyamine hydroxide was removed and treated with scintillant solution for counting (Beckman, LS6500). Assays were performed in triplicate unless otherwise stated. When potential small molecule inhibitors were added, they were mixed to stock (d) to a final concentration of 1 mM in Tris 50 mM, pH 7.9 buffer. To investigate inhibition of Mina53 by metals other than Fe(II), NiCl2 and ZnCl2 were added separately to the assay mixture to a final concentration of 80 μM.
Using this [^14C] labelled 2-OG assay (16 nm of 2-OG was initially present in the assay mixture), the level of uncoupled turnover for Mina53 was measured under standard catalytic conditions (16 nm of 2-OG was initially present in the assay mixture), in the absence of Fe(II), in the absence of ascorbate and in the presence on N-oxalylglycine (NOG) a ubiquitous inhibitor for the 2-OG dependent non-haem Fe(II) oxygenases^16.

Mina53(A26-V465) [2] = target: T1, Mina53(A26-V465); assay: as above; assay type: biochemical; conditions: His-Mina53, absence of prime substrate
[3] = final assay concentration of 80 μM

inhibition of uncoupled 2-OG turnover by small molecules (in words) (Mina53(A26-V465) [1])	2OG turnover (Mina53(A26-V465) [1]; small molecule added at 1 mM) [nm]	decarboxylation of 2-OG by His-Mina53 in the presence of inhibitor (in words) (Mina53(A26-V465) [2])	relative inhibitory potency, Ni versus Zn (in words) (Mina53(A26-V465) [1]; [3])	Compound	inhibition of Mina53 mediated oxidation of 2OG by metals other than Fe(II) (in words) (Mina53(A26-V465) [1]; [3])	2OG turnover (Mina53(A26-V465) [1]; metal salt added at 80 μM) [nm]
did not significantly reduce it	3.18 ± 0.03			O=C(O)CNC(=O)c1nc(Cl)c2ccccc2c1O [BB231]		
did not significantly reduce it	3.86 ± 0.05			O=C(O)C(=O)NC(Cc1ccccc1)C(=O)O [NOFD, N-oxalyl D-phenylalaninie]		
inhibit uncoupled 2-OG turnover	0.47 ± 0.12	inhibited		O=C(O)CNC(=O)C(=O)O [NOG, N-oxalylglycine]		
				[Cl][Ni][Cl] [NiCl2]	inhibit 2OG turnover	2 ± 0.23
inhibit uncoupled 2-OG turnover	0.17 ± 0.12			CCC(=O)C1C(=O)CC(C(=O)O)CC1=O (stereo not shown) [Prohexadione, prohexadione]		
			more potent inhibitor	[Cl-].[Cl-].[Zn+2] [ZnCl2]	inhibit 2OG turnover	0.93 ± 0.17

Compound	inhibition of uncoupled 2-OG turnover by small molecules (in words) (Mina53(A26-V465) [1])	2OG turnover (Mina53(A26-V465) [1]; small molecule added at 1 mM) [nm]	decarboxylation of 2-OG by His-Mina53 in the presence of inhibitor (in words) (Mina53(A26-V465) [2])	relative inhibitory potency, Ni versus Zn (in words) (Mina53(A26-V465) [1]; [3])	inhibition of Mina53 mediated oxidation of 2OG by metals other than Fe(II) (in words) (Mina53(A26-V465) [1]; [3])	2OG turnover (Mina53(A26-V465) [1]; metal salt added at 80 μM) [nm]
fumarate	inhibit uncoupled 2-OG turnover	0.58 ± 0.09				
